Measured values reported in ChEMBL document CHEMBL4507313, “Data for DCP probe BAY-179” (2021).
One block for each molecule: values may come before it.

Columns and labels:
[1] = molecular target: Beta-3 adrenergic receptor (Homo sapiens) (UniProt P13945); details: Compound concentration 10.0 uM
[2] = molecular target: T1, Sigma non-opioid intracellular receptor 1 (Homo sapiens, UniProt Q99720); assay: GPCRScan assay: inhibition of Sigma 1; parameters: radioligand conc. used [nm] 4.0 – 5.0, parental cells HEKT
[3] = molecular target: Histamine H1 receptor (Homo sapiens) (UniProt P35367); details: Compound concentration 10.0 uM
[4] = molecular target: 5-hydroxytryptamine receptor 1D (Homo sapiens) (UniProt P28221); details: Compound concentration 10.0 uM
[5] = molecular target: 5-hydroxytryptamine receptor 2C (Homo sapiens) (UniProt P28335); details: Compound concentration 10.0 uM
[6] = molecular target: D(3) dopamine receptor (Homo sapiens) (UniProt P35462); details: Compound concentration 10.0 uM
[7] = molecular target: Muscarinic acetylcholine receptor M5 (Homo sapiens) (UniProt P08912); details: Compound concentration 10.0 uM
[8] = molecular target: Sodium-dependent serotonin transporter (Homo sapiens) (UniProt P31645); details: Compound concentration 10.0 uM
[9] = molecular target: Delta-type opioid receptor (Homo sapiens) (UniProt P41143); details: Compound concentration 10.0 uM
[10] = molecular target: T2, Sigma intracellular receptor 2 (Homo sapiens, UniProt Q5BJF2); details: Compound concentration 10.0 uM
[11] = molecular target: Muscarinic acetylcholine receptor M4 (Homo sapiens) (UniProt P08173); details: Compound concentration 10.0 uM
[12] = molecular target: Alpha-2B adrenergic receptor (Homo sapiens) (UniProt P18089); details: Compound concentration 10.0 uM
[13] = molecular target: Histamine H2 receptor (Homo sapiens) (UniProt P25021); details: Compound concentration 10.0 uM
[14] = molecular target: D(2) dopamine receptor (Homo sapiens) (UniProt P14416); details: Compound concentration 10.0 uM
[15] = molecular target: Muscarinic acetylcholine receptor M2 (Homo sapiens) (UniProt P08172); details: Compound concentration 10.0 uM
[16] = molecular target: 5-hydroxytryptamine receptor 2A (Homo sapiens) (UniProt P28223); details: Compound concentration 10.0 uM
[17] = molecular target: Alpha-2A adrenergic receptor (Homo sapiens) (UniProt P08913); details: Compound concentration 10.0 uM
[18] = molecular target: Muscarinic acetylcholine receptor M3 (Homo sapiens) (UniProt P20309); details: Compound concentration 10.0 uM
[19] = molecular target: Alpha-1A adrenergic receptor (Homo sapiens) (UniProt P35348); details: Compound concentration 10.0 uM
[20] = molecular target: T3, 5-hydroxytryptamine receptor 6 (Homo sapiens, UniProt P50406); details: Compound concentration 10.0 uM
[21] = molecular target: Alpha-2C adrenergic receptor (Homo sapiens) (UniProt P18825); details: Compound concentration 10.0 uM
Rattus norvegicus = species on record: Rattus norvegicus; details: Compound concentration 10.0 uM
[22] = molecular target: T1, Sigma non-opioid intracellular receptor 1; details: Compound concentration 10.0 uM
[23] = molecular target: 5-hydroxytryptamine receptor 7 (Homo sapiens) (UniProt P34969); details: Compound concentration 10.0 uM
[24] = molecular target: D(4) dopamine receptor (Homo sapiens) (UniProt P21917); details: Compound concentration 10.0 uM
[25] = molecular target: 5-hydroxytryptamine receptor 1B (Homo sapiens) (UniProt P28222); details: Compound concentration 10.0 uM
[26] = molecular target: Beta-1 adrenergic receptor (Homo sapiens) (UniProt P08588); details: Compound concentration 10.0 uM
[27] = molecular target: Alpha-1B adrenergic receptor (Homo sapiens) (UniProt P35368); details: Compound concentration 10.0 uM
[28] = molecular target: Histamine H4 receptor (Homo sapiens) (UniProt Q9H3N8); details: Compound concentration 10.0 uM
[29] = molecular target: T4, 5-hydroxytryptamine receptor 2B (Homo sapiens, UniProt P41595); details: Compound concentration 10.0 uM
[30] = molecular target: 5-hydroxytryptamine receptor 1A (Homo sapiens) (UniProt P08908); details: Compound concentration 10.0 uM
[31] = molecular target: Histamine H3 receptor (Homo sapiens) (UniProt Q9Y5N1); details: Compound concentration 10.0 uM
[32] = molecular target: Alpha-1D adrenergic receptor (Homo sapiens) (UniProt P25100); details: Compound concentration 10.0 uM
[33] = molecular target: 5-hydroxytryptamine receptor 3A (Homo sapiens) (UniProt P46098); details: Compound concentration 10.0 uM
[34] = molecular target: D(1B) dopamine receptor (Homo sapiens) (UniProt P21918); details: Compound concentration 10.0 uM
[35] = molecular target: Muscarinic acetylcholine receptor M1 (Homo sapiens) (UniProt P11229); details: Compound concentration 10.0 uM
[36] = molecular target: T5, GABA-A receptor; anion channel (Rattus norvegicus) (UniProt O09028+P15431+P18506+P18508+P19969+P20236+P23574+P23576+P28471+P28473+P30191+P62813+P63079+P63138+Q91ZM7+Q9ES14); details: Compound concentration 10.0 uM
[37] = molecular target: Mu-type opioid receptor (Homo sapiens) (UniProt P35372); details: Compound concentration 10.0 uM
[38] = molecular target: Kappa-type opioid receptor (Homo sapiens) (UniProt P41145); details: Compound concentration 10.0 uM
[39] = molecular target: Sodium-dependent noradrenaline transporter (Homo sapiens) (UniProt P23975); details: Compound concentration 10.0 uM
[40] = molecular target: 5-hydroxytryptamine receptor 5A (Homo sapiens) (UniProt P47898); details: Compound concentration 10.0 uM
[41] = molecular target: Sodium-dependent dopamine transporter (Homo sapiens) (UniProt Q01959); details: Compound concentration 10.0 uM
[42] = molecular target: T2, Sigma intracellular receptor 2; assay: GPCRScan assay: inhibition of Sigma 2; parameters: radioligand conc. used [nm] 5.0, parental cells HEKT
[43] = molecular target: T4, 5-hydroxytryptamine receptor 2B; assay: GPCRScan assay: inhibition of 5-HT2B; parameters: radioligand conc. used [nm] 1.0 – 2.0, parental cells stable HEK
[44] = molecular target: Beta-2 adrenergic receptor (Homo sapiens) (UniProt P07550); details: Compound concentration 10.0 uM
MKN-1 = assay: MKN1 cell line Proliferation assay; type: functional, Homo sapiens
LOX IMVI = assay: LOX cell line Proliferation assay; type: functional, Homo sapiens
LS174T = assay: LS174T cell line Proliferation assay; type: functional, Homo sapiens
[45] = molecular target: T5, GABA-A receptor; anion channel (Rattus norvegicus); details: Compound concentration 10.0 uM; remark: listed apart in the source
[46] = molecular target: D(1A) dopamine receptor (Homo sapiens) (UniProt P21728); details: Compound concentration 10.0 uM
RKO = assay: RKO cell line Proliferation assay; type: functional, Homo sapiens
SK-MEL-28 = assay: SK- MEL-28 cell line Proliferation assay; type: functional, Homo sapiens
[47] = LXFA62 9 cell line Proliferation assay; type: functional, Homo sapiens, LXF 629L; details: Cell line Patient derived
[48] = molecular target: 5-hydroxytryptamine receptor 3A (Homo sapiens, UniProt P46098); assay: GPCRScan assay: inhibition of 5-HT3; parameters: radioligand conc. used [nm] 1.0 – 2.0, parental cells HEKT
[49] = molecular target: Muscarinic acetylcholine receptor M2 (Homo sapiens, UniProt P08172); assay: GPCRScan assay: inhibition of M2; parameters: radioligand conc. used [nm] 0.2 – 1.0, parental cells stable CHO
Caco-2 = assay: Caco-2 cell line Proliferation assay; type: functional, Homo sapiens
[50] = GXF25 1 cell line Proliferation assay; type: functional, Homo sapiens; details: Cell line Patient derived
[51] = BXF121 8 cell line Proliferation assay; type: functional, Homo sapiens; details: Cell line Patient derived
[52] = molecular target: T3, 5-hydroxytryptamine receptor 6; assay: GPCRScan assay: inhibition of 5-HT6; parameters: radioligand conc. used [nm] 2.0 – 4.0, parental cells stable HEK
[53] = molecular target: 5-hydroxytryptamine receptor 1E (Homo sapiens) (UniProt P28566); details: Compound concentration 10.0 uM
[54] = molecular target: Alpha-2C adrenergic receptor (Homo sapiens, UniProt P18825); assay: GPCRScan assay: inhibition of Alpha2C; parameters: radioligand conc. used [nm] 0.5 – 1.0, parental cells stable MDCK
[55] = BXF135 2 cell line Proliferation assay; type: functional, Homo sapiens; details: Cell line Patient derived
BG-1 cell line = assay: BG1 cell line Proliferation assay; type: functional, Homo sapiens

T1 sequence (Q99720 whole entry): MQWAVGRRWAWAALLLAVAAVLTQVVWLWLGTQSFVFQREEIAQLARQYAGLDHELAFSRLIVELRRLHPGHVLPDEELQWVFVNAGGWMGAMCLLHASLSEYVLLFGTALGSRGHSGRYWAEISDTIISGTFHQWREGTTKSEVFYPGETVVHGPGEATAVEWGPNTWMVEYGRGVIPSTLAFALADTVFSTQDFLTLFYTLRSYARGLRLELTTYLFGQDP
T3 sequence (P50406 whole entry): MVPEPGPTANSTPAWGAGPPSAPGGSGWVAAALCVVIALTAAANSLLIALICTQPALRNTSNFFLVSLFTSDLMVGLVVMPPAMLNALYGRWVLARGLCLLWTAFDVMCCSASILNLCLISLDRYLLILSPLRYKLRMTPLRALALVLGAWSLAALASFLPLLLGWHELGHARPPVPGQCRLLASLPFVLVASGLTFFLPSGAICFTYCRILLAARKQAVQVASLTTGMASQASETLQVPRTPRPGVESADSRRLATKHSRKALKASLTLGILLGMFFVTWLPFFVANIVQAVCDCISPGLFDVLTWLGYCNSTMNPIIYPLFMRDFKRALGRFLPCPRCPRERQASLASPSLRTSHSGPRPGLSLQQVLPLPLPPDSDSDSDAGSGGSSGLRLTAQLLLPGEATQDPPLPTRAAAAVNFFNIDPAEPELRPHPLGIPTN
T2 sequence (Q5BJF2 whole entry): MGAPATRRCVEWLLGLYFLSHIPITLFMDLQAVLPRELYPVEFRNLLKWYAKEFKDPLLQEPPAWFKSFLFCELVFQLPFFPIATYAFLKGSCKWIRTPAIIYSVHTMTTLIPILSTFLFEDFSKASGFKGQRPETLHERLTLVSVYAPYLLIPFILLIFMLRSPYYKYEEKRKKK
T4 sequence (P41595 whole entry): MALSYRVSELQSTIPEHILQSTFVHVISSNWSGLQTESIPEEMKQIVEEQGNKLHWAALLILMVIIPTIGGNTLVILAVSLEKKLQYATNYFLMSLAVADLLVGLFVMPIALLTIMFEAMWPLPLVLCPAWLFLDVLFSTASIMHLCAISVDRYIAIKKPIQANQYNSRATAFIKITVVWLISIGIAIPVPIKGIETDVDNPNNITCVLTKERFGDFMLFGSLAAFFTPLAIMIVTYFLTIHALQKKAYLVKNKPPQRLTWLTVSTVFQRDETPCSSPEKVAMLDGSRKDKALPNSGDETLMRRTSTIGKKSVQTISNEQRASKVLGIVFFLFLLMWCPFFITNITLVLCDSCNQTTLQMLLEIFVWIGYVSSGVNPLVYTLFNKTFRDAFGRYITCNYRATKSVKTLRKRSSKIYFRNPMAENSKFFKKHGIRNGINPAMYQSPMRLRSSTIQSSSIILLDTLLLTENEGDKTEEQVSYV
Chain of Beta-3 adrenergic receptor (Homo sapiens) (P13945 whole entry, looked up): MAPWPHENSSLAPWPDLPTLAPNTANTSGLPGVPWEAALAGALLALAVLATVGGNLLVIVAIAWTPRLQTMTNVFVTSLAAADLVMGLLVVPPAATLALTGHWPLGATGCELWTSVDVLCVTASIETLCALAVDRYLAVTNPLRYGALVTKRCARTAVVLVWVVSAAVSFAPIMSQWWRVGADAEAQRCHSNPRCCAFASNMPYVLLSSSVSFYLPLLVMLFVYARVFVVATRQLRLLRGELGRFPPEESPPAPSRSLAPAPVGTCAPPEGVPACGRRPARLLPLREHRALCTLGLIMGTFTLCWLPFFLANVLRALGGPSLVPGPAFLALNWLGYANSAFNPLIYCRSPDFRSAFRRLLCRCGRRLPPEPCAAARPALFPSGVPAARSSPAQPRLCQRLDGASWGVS
Chain of Beta-1 adrenergic receptor (Homo sapiens) (P08588 whole entry, looked up): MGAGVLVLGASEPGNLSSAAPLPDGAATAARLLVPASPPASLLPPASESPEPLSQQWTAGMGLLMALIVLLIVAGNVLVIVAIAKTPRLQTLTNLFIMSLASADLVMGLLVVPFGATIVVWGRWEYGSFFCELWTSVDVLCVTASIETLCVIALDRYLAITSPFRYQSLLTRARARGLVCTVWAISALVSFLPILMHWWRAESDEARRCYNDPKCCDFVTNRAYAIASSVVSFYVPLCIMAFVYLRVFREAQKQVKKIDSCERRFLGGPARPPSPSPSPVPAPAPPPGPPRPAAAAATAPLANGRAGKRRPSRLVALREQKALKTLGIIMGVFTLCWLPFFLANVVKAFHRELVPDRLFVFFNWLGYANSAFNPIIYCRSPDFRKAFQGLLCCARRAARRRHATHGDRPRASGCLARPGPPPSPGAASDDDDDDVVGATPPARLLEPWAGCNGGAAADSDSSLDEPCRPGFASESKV
Chain of Muscarinic acetylcholine receptor M4 (Homo sapiens) (P08173 whole entry): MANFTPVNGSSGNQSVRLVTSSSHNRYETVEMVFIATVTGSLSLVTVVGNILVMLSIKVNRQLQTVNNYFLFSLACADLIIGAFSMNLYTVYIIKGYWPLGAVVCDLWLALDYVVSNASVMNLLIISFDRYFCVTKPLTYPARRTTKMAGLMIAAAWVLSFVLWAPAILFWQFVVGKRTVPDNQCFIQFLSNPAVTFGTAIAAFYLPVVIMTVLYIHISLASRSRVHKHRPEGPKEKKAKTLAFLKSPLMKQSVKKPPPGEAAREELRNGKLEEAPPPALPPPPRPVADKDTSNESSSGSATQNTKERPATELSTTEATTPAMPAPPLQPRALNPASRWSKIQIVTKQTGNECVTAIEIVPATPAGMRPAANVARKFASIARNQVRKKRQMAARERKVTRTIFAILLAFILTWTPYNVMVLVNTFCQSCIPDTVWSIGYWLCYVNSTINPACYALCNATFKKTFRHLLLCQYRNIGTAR
Chain of D(1B) dopamine receptor (Homo sapiens) (P21918 whole entry): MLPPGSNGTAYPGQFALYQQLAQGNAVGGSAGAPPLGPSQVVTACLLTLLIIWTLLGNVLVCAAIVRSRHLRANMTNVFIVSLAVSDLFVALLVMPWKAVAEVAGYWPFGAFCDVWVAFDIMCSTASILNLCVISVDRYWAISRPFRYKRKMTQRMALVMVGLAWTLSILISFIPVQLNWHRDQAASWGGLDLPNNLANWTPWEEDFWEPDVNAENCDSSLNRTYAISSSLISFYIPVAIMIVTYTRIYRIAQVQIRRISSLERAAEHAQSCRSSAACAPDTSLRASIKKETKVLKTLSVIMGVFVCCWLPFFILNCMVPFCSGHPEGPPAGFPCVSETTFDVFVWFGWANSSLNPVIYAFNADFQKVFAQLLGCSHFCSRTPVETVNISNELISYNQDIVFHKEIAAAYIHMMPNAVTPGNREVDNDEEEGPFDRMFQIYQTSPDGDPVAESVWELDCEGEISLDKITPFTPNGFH
Chain of Alpha-1B adrenergic receptor (Homo sapiens) (P35368 whole entry): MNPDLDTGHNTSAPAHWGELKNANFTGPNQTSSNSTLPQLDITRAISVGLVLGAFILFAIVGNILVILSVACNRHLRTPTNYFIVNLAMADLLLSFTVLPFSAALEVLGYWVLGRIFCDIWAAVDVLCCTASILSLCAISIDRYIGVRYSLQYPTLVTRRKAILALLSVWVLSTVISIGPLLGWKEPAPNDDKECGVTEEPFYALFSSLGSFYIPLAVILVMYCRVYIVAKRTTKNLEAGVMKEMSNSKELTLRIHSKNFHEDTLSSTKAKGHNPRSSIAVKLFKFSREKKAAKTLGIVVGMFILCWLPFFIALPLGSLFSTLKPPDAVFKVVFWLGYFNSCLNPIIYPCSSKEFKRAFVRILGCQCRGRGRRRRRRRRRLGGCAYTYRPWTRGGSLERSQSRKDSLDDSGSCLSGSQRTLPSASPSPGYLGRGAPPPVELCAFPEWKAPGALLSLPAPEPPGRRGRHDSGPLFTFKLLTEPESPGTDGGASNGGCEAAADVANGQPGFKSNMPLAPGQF
Chain of Mu-type opioid receptor (Homo sapiens) (P35372 whole entry): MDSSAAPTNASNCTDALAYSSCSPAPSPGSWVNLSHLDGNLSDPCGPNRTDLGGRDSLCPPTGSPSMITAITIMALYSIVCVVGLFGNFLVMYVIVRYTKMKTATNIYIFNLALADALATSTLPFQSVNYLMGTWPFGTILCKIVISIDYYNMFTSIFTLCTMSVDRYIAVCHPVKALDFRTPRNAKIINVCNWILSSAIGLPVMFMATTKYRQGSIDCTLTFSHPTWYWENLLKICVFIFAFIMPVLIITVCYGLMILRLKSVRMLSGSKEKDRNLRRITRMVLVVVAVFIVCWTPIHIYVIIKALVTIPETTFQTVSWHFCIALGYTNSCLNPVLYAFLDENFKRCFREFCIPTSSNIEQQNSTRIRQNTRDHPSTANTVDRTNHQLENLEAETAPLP
Chain of Muscarinic acetylcholine receptor M3 (Homo sapiens) (P20309 whole entry, looked up): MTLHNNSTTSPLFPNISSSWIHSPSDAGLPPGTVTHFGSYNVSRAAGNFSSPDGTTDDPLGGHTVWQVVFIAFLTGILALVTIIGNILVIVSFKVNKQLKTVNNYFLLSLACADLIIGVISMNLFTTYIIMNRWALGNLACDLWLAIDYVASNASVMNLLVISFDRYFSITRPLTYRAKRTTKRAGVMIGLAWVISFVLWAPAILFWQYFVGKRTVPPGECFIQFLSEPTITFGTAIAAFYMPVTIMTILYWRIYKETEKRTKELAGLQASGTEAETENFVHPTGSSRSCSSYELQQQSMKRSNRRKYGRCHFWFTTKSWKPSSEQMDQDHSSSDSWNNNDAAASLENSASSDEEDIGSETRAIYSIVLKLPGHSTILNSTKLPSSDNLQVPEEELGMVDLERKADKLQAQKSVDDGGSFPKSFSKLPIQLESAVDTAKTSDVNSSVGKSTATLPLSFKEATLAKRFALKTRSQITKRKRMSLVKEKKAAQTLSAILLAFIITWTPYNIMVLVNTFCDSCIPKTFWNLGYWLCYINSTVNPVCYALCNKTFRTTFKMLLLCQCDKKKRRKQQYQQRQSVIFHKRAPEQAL

- inhibition [1]: 19.5%
- Ki [2]: 1290 nM
- inhibition [3]: 0.44%
- inhibition [4]: -0.96%
- inhibition [5]: 8.59%
- inhibition [6]: 47.6%
- inhibition [7]: 13.5%
- inhibition [8]: 7.08%
- inhibition [9]: 3.76%
- inhibition [10]: 98%
- inhibition [11]: 14.7%
- inhibition [12]: 22%
- inhibition [13]: 1.91%
- inhibition [14]: 44.6%
- inhibition [15]: 10.1%
- inhibition [16]: -4.2%
- inhibition [17]: 27.1%
- inhibition [18]: 16.1%
- inhibition [19]: 6.33%
- inhibition [20]: 31.4%
- inhibition [21]: 19.9%
- inhibition (Rattus norvegicus): 13.7%
- inhibition [22]: 80%
- inhibition [23]: 10.1%
- inhibition [24]: 44%
- inhibition [25]: 4.71%
- inhibition [26]: 19.9%
- inhibition [27]: 7.64%
- inhibition [28]: -9.17%
- inhibition [29]: 72%
- inhibition [30]: 10.2%
- inhibition [31]: -7.57%
- inhibition [32]: 14.4%
- inhibition [33]: 45.1%
- inhibition [34]: 5.35%
- inhibition [35]: 43.4%
- inhibition [36]: -6.05%
- inhibition [37]: 9.54%
- inhibition [38]: 18.1%
- inhibition [39]: -3.53%
- inhibition [40]: 16.2%
- inhibition [41]: -1.09%
- Ki ([42]; read-out: Ki): 152 nM
- Ki ([43]; read-out: Ki): 1580 nM
- Ki ([43]; read-out: pKi (converted)): 1510 nM
- inhibition [44]: 23%
Compound: Cn1c(-c2csc(C3CCN(CC4=NC5N=CC=CC5N4)CC3)n2)nc2ccccc21 (configuration not stated) [BAY-070]

- inhibition [1]: 11.7%
- Ki [2]: 1180 nM
- inhibition [3]: 37.4%
- Cell Proliferation EC50 (MKN-1): 34 nM
- inhibition [4]: 16.9%
- inhibition [45]: 7.9%
- inhibition [46]: -2.56%
- inhibition [5]: 20.2%
- inhibition [6]: 28.6%
- inhibition [7]: -7.72%
- inhibition [8]: 40.3%
- inhibition [9]: 22%
- Cell Proliferation EC50 (SK-MEL-28): 75 nM
- inhibition [10]: 78.1%
- inhibition [11]: -4.61%
- inhibition [12]: 28.7%
- inhibition [13]: 14.8%
- inhibition [14]: 5.5%
- inhibition [15]: 54.2%
- inhibition [16]: 5.87%
- inhibition [17]: 32.1%
- inhibition [18]: -0.2%
- inhibition [19]: 15.5%
- Ki ([48]; read-out: Ki): 5460 nM
- Ki ([48]; read-out: pKi (converted)): 5370 nM
- inhibition [20]: 72.4%
- inhibition [21]: 53.4%
- inhibition (Rattus norvegicus): 20.2%
- inhibition [22]: 55.4%
- inhibition [23]: 40.9%
- inhibition [24]: 16.5%
- inhibition [25]: 16%
- inhibition [26]: 20.9%
- inhibition [27]: 35.7%
- Ki ([49]; read-out: Ki): 5470 nM
- Ki ([49]; read-out: pKi (converted)): 4420 nM
- Cell Proliferation EC50 (Caco-2): 129 nM
- inhibition [28]: 2.33%
- inhibition [29]: 74.5%
- Ki [52]: 5240 nM
- inhibition [30]: 16.4%
- inhibition [31]: -4.94%
- inhibition [32]: 9.84%
- inhibition [33]: 72.1%
- inhibition [34]: 5.5%
- inhibition [35]: 1.7%
- inhibition [36]: 48.3%
- inhibition [37]: 22.4%
- inhibition [38]: 21.6%
- inhibition [40]: 19.9%
- Ki ([42]; read-out: Ki): 1120 nM
- Ki ([42]; read-out: pKi (converted)): 1100 nM
- Ki ([43]; read-out: Ki): 558 nM
- Ki ([43]; read-out: pKi (converted)): 550 nM
- inhibition [53]: 30.9%
- Ki [54]: 3500 nM
- inhibition [44]: 25.4%
Compound: c1ccc2oc(-c3csc(C4CCN(Cc5nc6ncccc6[nH]5)CC4)n3)cc2c1
- Cell Proliferation EC70 (MKN-1): 85 nM
- Cell Proliferation EC50 (LOX IMVI): 126 nM
- Cell Proliferation EC70 (LOX IMVI): 335 nM
- Cell Proliferation EC50 (LS174T): 43 nM
- Cell Proliferation EC70 (LS174T): 109 nM
- Cell Proliferation EC50 (RKO): 153 nM
- Cell Proliferation EC70 (RKO): 251 nM
- Cell Proliferation EC70 (SK-MEL-28): 215 nM
- Cell Proliferation EC50 [47]: 66 nM
- Cell Proliferation EC70 [47]: 195 nM
- Cell Proliferation EC70 (Caco-2): 209 nM
- Cell Proliferation EC50 [50]: 81 nM
- Cell Proliferation EC70 [50]: 147 nM
- Cell Proliferation EC50 [51]: 65 nM
- Cell Proliferation EC70 [51]: 104 nM
- Cell Proliferation EC50 [55]: 23 nM
- Cell Proliferation EC70 [55]: 48 nM
- Cell Proliferation EC50 (BG-1 cell line): 142 nM
- Cell Proliferation EC70 (BG-1 cell line): 207 nM
